Test results from patent US12692262B2, “Substituted ureas as orexin receptor agonists” (Merck Sharp & Dohme LLC, priority 2020, dated 2026).

Biological target: T1, human OX2R (Homo sapiens, UniProt O43614)
T1 construct: expressed in transfected cells; host or cells: CHO (Chinese hamster ovary) cells grown under G418 selection
T1 sequence (O43614 1-444): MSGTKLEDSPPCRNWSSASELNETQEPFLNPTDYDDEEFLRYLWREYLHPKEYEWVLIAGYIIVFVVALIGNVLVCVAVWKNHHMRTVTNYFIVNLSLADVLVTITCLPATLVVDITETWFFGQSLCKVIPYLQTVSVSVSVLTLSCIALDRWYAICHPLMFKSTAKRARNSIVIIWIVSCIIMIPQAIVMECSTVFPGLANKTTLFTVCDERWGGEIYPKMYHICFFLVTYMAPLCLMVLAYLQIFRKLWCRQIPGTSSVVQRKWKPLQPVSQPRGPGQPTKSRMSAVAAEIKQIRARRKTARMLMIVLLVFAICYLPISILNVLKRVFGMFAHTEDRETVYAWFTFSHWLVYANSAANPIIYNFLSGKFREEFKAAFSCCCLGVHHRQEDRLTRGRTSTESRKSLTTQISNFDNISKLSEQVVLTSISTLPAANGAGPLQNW
Test: IPOne (IP-1 accumulation) assay in CHO cells expressing human OX2R
Type: cell-based
Details: for EC50: CHO cells expressing human OX2R, IP-One assay, 2 h incubation, four parameter logistic fit, read-out: OX2R Potency, EC50; for % of maximum agonist effect (relative to Orexin A): percent effect vs mean max effect of a reference compound at 1 uM (100% activity vs Orexin A), human OX2R
Procedure, shortened: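 Agonist EC50 values come from the inflection point of four-parameter logistic curves. Read-out is IP-1 accumulation detected with lysis buffer plus D2 and AB-cryptate reagents (HTRF), in CHO cells engineered to express human OX2R.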

Structure (SMILES)	EC50 [nM]	% of maximum agonist effect (relative to Orexin A) [%]	% of maximum agonist effect (relative to Orexin A) (1 µM) [%]
CC[C@H](CCC(F)(F)F)NC(=O)N(CC)[C@H](C)c1cc2c(c(-c3ccc4nccn4c3)c1)OCC2 [Example 11-1, 1-ethyl-1-((R)-1-(7-(imidazo[1,2-a]pyridin-6-yl)-2,3-dihydrobenzofuran-5-yl)ethyl)-3-((R)-6,6,6-trifluorohexan-3-yl)urea]	5.6	97.4	
CCN(C(=O)NC1CCC(C(F)(F)F)N(C)C1)[C@@H](c1cccc(-c2cn3ccnc3c(OC)n2)c1)C(F)(F)F (stereo partly drawn) [Example 2-67, 1-ethyl-3-(1-methyl-6-(trifluoromethyl)piperidin-3-yl)-1-((S)-2,2,2-trifluoro-1-(3-(8-methoxyimidazo[1,2-a]pyrazin-6-yl)phenyl)ethyl)urea]	7.7	98.7	
CCN(C(=O)N[C@@H](CCC(F)(F)F)C(F)(F)F)C(C)c1ccnc(-c2cn3ccnc3c(OC)n2)c1 (stereo partly drawn) [Example 13-1, 1-ethyl-3-((S)-1,1,1,5,5,5-hexafluoropentan-2-yl)-1-(1-(2-(8-methoxyimidazo[1,2-a]pyrazin-6-yl)pyridin-4-yl)ethyl)urea]	11.7	101.4	
CCN(C(=O)N[C@@H](CCC(F)(F)F)C(F)(F)F)C(c1cc(-c2cc(OC)c3nccnc3c2)c(OC)cn1)C(F)(F)F (stereo partly drawn) [Example 10-13, 1-ethyl-3-((S)-1,1,1,5,5,5-hexafluoropentan-2-yl)-1-(2,2,2-trifluoro-1-(5-methoxy-4-(8-methoxyquinoxalin-6-yl)pyridin-2-yl)ethyl)urea]	132	101.7	
CCN(C(=O)NC(C1CC(F)(F)CCO1)C(F)(F)F)[C@H](C)c1cccc(-c2cn3ccnc3c(OC)n2)c1 (stereo partly drawn) [Example 2-33, 3-(1-(4,4-difluorotetrahydro-2H-pyran-2-yl)-2,2,2-trifluoroethyl)-1-ethyl-1-((R)-1-(3-(8-methoxyimidazo[1,2-a]pyrazin-6-yl)phenyl)ethyl)urea]	0.8	101.6	
CCN(C(=O)NC(CN(C)C)C(F)(F)F)[C@H](C)c1cccc(-c2cc(OC)n3nccc3c2)c1 (stereo partly drawn) [Example 1-13, 3-(3-(dimethylamino)-1,1,1-trifluoropropan-2-yl)-1-ethyl-1-((R)-1-(3-(7-methoxypyrazolo[1,5-a]pyridin-5-yl)phenyl)ethyl)urea]	146	80.7	
CC[C@H](CCC(F)(F)F)NC(=O)N(CC)[C@H](C)c1ccc(Cl)c(-c2cc(OC)c3nccn3c2)c1 [Example 14-2, 1-((R)-1-(4-chloro-3-(8-methoxyimidazo[1,2-a]pyridin-6-yl)phenyl)ethyl)-1-ethyl-3-((R)-6,6,6-trifluorohexan-3-yl)urea]	2.6	96.0	
C#CC(NC(=O)N(CC)[C@@H](c1cc(-c2cn3ccnc3c(OC)n2)c(OC)cn1)C(F)(F)F)C(F)(F)F (stereo partly drawn) [Example 5-3, 1-ethyl-1-((S)-2,2,2-trifluoro-1-(5-methoxy-4-(8-methoxyimidazo[1,2-a]pyrazin-6-yl)pyridin-2-yl)ethyl)-3-(1,1,1-trifluorobut-3-yn-2-yl)urea]	37.4	100.5	
CC[C@H](CCC(F)(F)F)NC(=O)N(CC)Cc1ccc(OC)c(-c2cc(OC)c3nccn3c2)c1 [Example 1-8, (R)-1-ethyl-1-(4-methoxy-3-(8-methoxyimidazo[1,2-a]pyridin-6-yl)benzyl)-3-(6,6,6-trifluorohexan-3-yl)urea]	0.8	96.5	
CCN(C(=O)N[C@H](C)C1CCC(F)(F)CC1)[C@H](C)c1cccc(-c2cn3ccnc3c(OC)n2)c1 [Example 1-4, 3-((R)-1-(4,4-difluorocyclohexyl)ethyl)-1-ethyl-1-((R)-1-(3-(8-methoxyimidazo[1,2-a]pyrazin-6-yl)phenyl)ethyl)urea]	6.9	96.1	
CCN(C(=O)NC(C#N)C1CCCC(F)(F)C1)[C@H](C)c1cccc(-c2cn3ccnc3c(OC)n2)c1 (single isomer, unassigned) [Example 16]	3.2	100.8	
CCN(C(=O)N[C@@H](CC1CC1)C(F)(F)F)[C@@H](c1cc(-c2cn3cc(C)nc3c(OC)n2)c(OC)cn1)C(F)(F)F [Example 3-5, 3-((S)-3-cyclopropyl-1,1,1-trifluoropropan-2-yl)-1-ethyl-1-((S)-2,2,2-trifluoro-1-(5-methoxy-4-(8-methoxy-2-methylimidazo[1,2-a]pyrazin-6-yl)pyridin-2-yl)ethyl)urea]	40.5	99.3	
CCC(/C=C/C(F)(F)F)NC(=O)N(CC)[C@@H](c1cc(-c2cn3cc(C)nc3c(OC)n2)c(OC)cn1)C(F)(F)F (stereo partly drawn) [Example 6-5, 1-ethyl-1-((S)-2,2,2-trifluoro-1-(5-methoxy-4-(8-methoxy-2-methylimidazo[1,2-a]pyrazin-6-yl)pyridin-2-yl)ethyl)-3-((E)-6,6,6-trifluorohex-4-en-3-yl)urea]	18.9	100.0	
CC[C@H](CCC(F)(F)F)NC(=O)N(CC)[C@H](C)c1cccc(-c2cc(C(F)F)c3nccn3c2)c1 [Example 7-3, 1-((R)-1-(3-(8-(difluoromethyl)imidazo[1,2-a]pyridin-6-yl)phenyl)ethyl)-1-ethyl-3-((R)-6,6,6-trifluorohexan-3-yl)urea]	491	86.1	
CCC(NC(=O)N(CC)[C@@H](c1cc(-c2cn3ccnc3c(OC)n2)c(OC)cn1)C(F)(F)F)C(F)F (stereo partly drawn) [Example 2-10, 3-(1,1-difluorobutan-2-yl)-1-ethyl-1-((S)-2,2,2-trifluoro-1-(5-methoxy-4-(8-methoxyimidazo[1,2-a]pyrazin-6-yl)pyridin-2-yl)ethyl)urea]	22.5	98.5	
CCN(C(=O)NC(C(F)F)C1CC1)[C@@H](c1cc(-c2cn3ccnc3c(OC)n2)c(OC)cn1)C(F)(F)F (stereo partly drawn) [Example 2-7, 3-(1-cyclopropyl-2,2-difluoroethyl)-1-ethyl-1-((S)-2,2,2-trifluoro-1-(5-methoxy-4-(8-methoxyimidazo[1,2-a]pyrazin-6-yl)pyridin-2-yl)ethyl)urea]	12.5	100.1	
CCN(C(=O)N[C@@H](CCC(F)(F)F)C(F)(F)F)[C@H](C)c1cc(-c2cn3ccnc3c(OC)n2)c(OC)cn1 [Example 12-1, 1-ethyl-3-((S)-1,1,1,5,5,5-hexafluoropentan-2-yl)-1-((R)-1-(5-methoxy-4-(8-methoxyimidazo[1,2-a]pyrazin-6-yl)pyridin-2-yl)ethyl)urea]	0.6	100.1	
CCN(C(=O)NCC(C)C(F)(F)F)[C@@H](c1cc(-c2cn3ccnc3c(OC)n2)c(OC)cn1)C(F)(F)F (stereo partly drawn) [Example 2-11, 1-ethyl-1-((S)-2,2,2-trifluoro-1-(5-methoxy-4-(8-methoxyimidazo[1,2-a]pyrazin-6-yl)pyridin-2-yl)ethyl)-3-(3,3,3-trifluoro-2-methylpropyl)urea]	30.3	97.6	
CCN(C(=O)N[C@@H](CCC(F)(F)F)C(F)(F)F)C(c1cc(-c2cn3ccnc3c(OC)n2)c(OC)c(C)n1)C(F)(F)F (stereo partly drawn) [Example 10-6, 1-ethyl-3-((S)-1,1,1,5,5,5-hexafluoropentan-2-yl)-1-(2,2,2-trifluoro-1-(5-methoxy-4-(8-methoxyimidazo[1,2-a]pyrazin-6-yl)-6-methylpyridin-2-yl)ethyl)urea]	9.2	98.9	
CCN(C(=O)N[C@@H](CCC(F)(F)F)C(F)(F)F)C(c1cc(-c2cc(OC)c3nc(C#N)cn3c2)c(OC)cn1)C(F)(F)F (stereo partly drawn) [Example 10-7, 1-(1-(4-(2-cyano-8-methoxyimidazo[1,2-a]pyridin-6-yl)-5-methoxypyridin-2-yl)-2,2,2-trifluoroethyl)-1-ethyl-3-((S)-1,1,1,5,5,5-hexafluoropentan-2-yl)urea]	1.5	102.7	
CCN(C(=O)NC1CCC1C(F)(F)F)[C@@H](c1cc(-c2cn3ccnc3c(OC)n2)c(OC)cn1)C(F)(F)F (stereo partly drawn) [Example 2-9, 1-ethyl-1-((S)-2,2,2-trifluoro-1-(5-methoxy-4-(8-methoxyimidazo[1,2-a]pyrazin-6-yl)pyridin-2-yl)ethyl)-3-(2-(trifluoromethyl)cyclobutyl)-urea]	20.3	100.0	
CCN(C(=O)N[C@@H](C=C(C)C)C(F)(F)F)[C@H](C)c1cccc(-c2cn3ccnc3c(OC)n2)c1 [Example 20, 1-ethyl-1-((R)-1-(3-(8-methoxyimidazo[1,2-a]pyrazin-6-yl)phenyl)ethyl)-3-((S)-1,1,1-trifluoro-4-methylpent-3-en-2-yl)urea]			100.1
